Measurements from PubChem BioAssay (NCI).
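Grown in 96-well plates, cells were treated for 48 hours with each compound at five concentrations. Insufficient inhibition: endpoint recorded as highest concentration tested. TGI marks complete inhibition of growth.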

Assays:
Assay in all cases: NCI-60 cell line screen, 48 h
UACC-62 melanoma = test system: UACC-62 melanoma
NCI-H226 lung = test system: NCI-H226 lung
M14 melanoma = test system: M14 melanoma
SK-MEL-5 melanoma = test system: SK-MEL-5 melanoma
SN12C renal = test system: SN12C renal
NCI-H522 lung = test system: NCI-H522 lung
SK-MEL-2 melanoma = test system: SK-MEL-2 melanoma
COLO 205 colon = test system: COLO 205 colon
OVCAR-8 ovarian = test system: OVCAR-8 ovarian
NCI/ADR-RES ovarian = test system: NCI/ADR-RES ovarian
A498 renal = test system: A498 renal
MCF7 breast = test system: MCF7 breast
LOX IMVI melanoma = test system: LOX IMVI melanoma
MDA-MB-435 = test system: MDA-MB-435
T-47D breast = test system: T-47D breast
RXF 393 renal = test system: RXF 393 renal
NCI-H23 lung = test system: NCI-H23 lung
OVCAR-4 ovarian = test system: OVCAR-4 ovarian
MALME-3M melanoma = test system: MALME-3M melanoma
U251 CNS = test system: U251 CNS
HL-60(TB) leukemia = test system: HL-60(TB) leukemia
SNB-19 CNS = test system: SNB-19 CNS
HS 578T breast = test system: HS 578T breast
OVCAR-3 ovarian = test system: OVCAR-3 ovarian
CCRF-CEM leukemia = test system: CCRF-CEM leukemia
HOP-62 NSCLC = test system: HOP-62 NSCLC
SF-295 CNS = test system: SF-295 CNS
SR leukemia = test system: SR leukemia
786-0 renal = test system: 786-0 renal
OVCAR-5 ovarian = test system: OVCAR-5 ovarian
HT29 colon = test system: HT29 colon
SNB-75 CNS = test system: SNB-75 CNS
A549 NSCLC = test system: A549 NSCLC
SK-OV-3 ovarian = test system: SK-OV-3 ovarian
MDA-N = test system: MDA-N
SF-268 CNS = test system: SF-268 CNS
HCT-116 colon = test system: HCT-116 colon
KM12 colon = test system: KM12 colon
UACC-257 melanoma = test system: UACC-257 melanoma
HOP-92 NSCLC = test system: HOP-92 NSCLC
SW-620 colon = test system: SW-620 colon
PC-3 prostate = test system: PC-3 prostate
UO-31 renal = test system: UO-31 renal
IGROV1 ovarian = test system: IGROV1 ovarian
MDA-MB-231 breast = test system: MDA-MB-231 breast
CAKI-1 renal = test system: CAKI-1 renal
SF-539 CNS = test system: SF-539 CNS
HCC-2998 colon = test system: HCC-2998 colon
EKVX NSCLC = test system: EKVX NSCLC
DU-145 prostate = test system: DU-145 prostate
HCT-15 colon = test system: HCT-15 colon
TK-10 renal = test system: TK-10 renal
MOLT-4 leukemia = test system: MOLT-4 leukemia
BT-549 breast = test system: BT-549 breast
ACHN renal = test system: ACHN renal
RPMI-8226 leukemia = test system: RPMI-8226 leukemia
K-562 leukemia = test system: K-562 leukemia
SK-MEL-28 melanoma = test system: SK-MEL-28 melanoma

With `O=C(/C=C/C=C/c1ccccc1)CCc1ccccc1` the TGI (UACC-62 melanoma) was over 100 µM, the TGI (NCI-H226 lung) was over 100 µM and the TGI (M14 melanoma) was over 100 µM. It also gave a TGI (SK-MEL-5 melanoma) of over 100 µM, a TGI (SN12C renal) of over 100 µM and a TGI (NCI-H522 lung) of over 100 µM. The TGI (SK-MEL-2 melanoma) was over 100 µM, the TGI (COLO 205 colon) was over 100 µM and the TGI (OVCAR-8 ovarian) was over 100 µM. It also gave a TGI (NCI/ADR-RES ovarian) of over 100 µM, a TGI (A498 renal) of over 100 µM and a TGI (MCF7 breast) of over 100 µM. For the same molecule, the TGI (LOX IMVI melanoma) was over 100 µM, the TGI (MDA-MB-435) was over 100 µM and the TGI (T-47D breast) was over 100 µM. The TGI (RXF 393 renal) was over 100 µM, the TGI (NCI-H23 lung) was over 100 µM and the TGI (OVCAR-4 ovarian) was over 100 µM. For the same molecule, the TGI (MALME-3M melanoma) was over 100 µM, the TGI (U251 CNS) was over 100 µM and the TGI (HL-60(TB) leukemia) was 53 µM. The TGI (SNB-19 CNS) was over 100 µM, the TGI (HS 578T breast) was over 100 µM and the TGI (OVCAR-3 ovarian) was over 100 µM. It also gave a TGI (CCRF-CEM leukemia) of over 100 µM, a TGI (HOP-62 NSCLC) of over 100 µM and a TGI (SF-295 CNS) of over 100 µM. It also gave a TGI (SR leukemia) of 63.7 µM, a TGI (786-0 renal) of over 100 µM and a TGI (OVCAR-5 ovarian) of over 100 µM. It also gave a TGI (HT29 colon) of over 100 µM, a TGI (SNB-75 CNS) of over 100 µM and a TGI (A549 NSCLC) of over 100 µM. It also gave a TGI (SK-OV-3 ovarian) of over 100 µM, a TGI (MDA-N) of over 100 µM and a TGI (SF-268 CNS) of over 100 µM. For the same molecule, the TGI (HCT-116 colon) was over 100 µM, the TGI (KM12 colon) was over 100 µM and the TGI (UACC-257 melanoma) was over 100 µM. For the same molecule, the TGI (HOP-92 NSCLC) was over 100 µM, the TGI (SW-620 colon) was over 100 µM and the TGI (PC-3 prostate) was over 100 µM. For the same molecule, the TGI (UO-31 renal) was over 100 µM, the TGI (IGROV1 ovarian) was over 100 µM and the TGI (MDA-MB-231 breast) was over 100 µM. It also gave a TGI (CAKI-1 renal) of over 100 µM, a TGI (SF-539 CNS) of over 100 µM and a TGI (HCC-2998 colon) of over 100 µM. It also gave a TGI (EKVX NSCLC) of over 100 µM, a TGI (DU-145 prostate) of over 100 µM and a TGI (HCT-15 colon) of over 100 µM. The TGI (TK-10 renal) was over 100 µM, the TGI (MOLT-4 leukemia) was 56.1 µM and the TGI (BT-549 breast) was over 100 µM.

Work on `CC(C)=CCC/C(=C\CC/C(=C\CCc1ccoc1)C(=O)O)C(=O)O` yielded a TGI (UACC-62 melanoma) of over 100 µM, a TGI (ACHN renal) of over 100 µM and a TGI (NCI-H226 lung) of over 100 µM. For the same molecule, the TGI (M14 melanoma) was over 100 µM, the TGI (SK-MEL-5 melanoma) was over 100 µM and the TGI (SN12C renal) was over 100 µM. It also gave a TGI (NCI-H522 lung) of over 100 µM, a TGI (SK-MEL-2 melanoma) of over 100 µM and a TGI (COLO 205 colon) of over 100 µM. For the same molecule, the TGI (OVCAR-8 ovarian) was over 100 µM, the TGI (NCI/ADR-RES ovarian) was over 100 µM and the TGI (A498 renal) was over 100 µM. It also gave a TGI (MCF7 breast) of over 100 µM, a TGI (LOX IMVI melanoma) of over 100 µM and a TGI (MDA-MB-435) of over 100 µM. The TGI (T-47D breast) was over 100 µM, the TGI (RXF 393 renal) was over 100 µM and the TGI (NCI-H23 lung) was over 100 µM. The TGI (OVCAR-4 ovarian) was over 100 µM, the TGI (MALME-3M melanoma) was over 100 µM and the TGI (U251 CNS) was over 100 µM. For the same molecule, the TGI (HL-60(TB) leukemia) was over 100 µM, the TGI (SNB-19 CNS) was over 100 µM and the TGI (HS 578T breast) was over 100 µM. The TGI (OVCAR-3 ovarian) was over 100 µM, the TGI (CCRF-CEM leukemia) was over 100 µM and the TGI (HOP-62 NSCLC) was over 100 µM. The TGI (SF-295 CNS) was over 100 µM, the TGI (SR leukemia) was over 100 µM and the TGI (786-0 renal) was over 100 µM. It also gave a TGI (OVCAR-5 ovarian) of over 100 µM, a TGI (HT29 colon) of over 100 µM and a TGI (SNB-75 CNS) of over 100 µM. It also gave a TGI (A549 NSCLC) of over 100 µM, a TGI (SK-OV-3 ovarian) of over 100 µM and a TGI (MDA-N) of over 100 µM. The TGI (SF-268 CNS) was over 100 µM, the TGI (HCT-116 colon) was over 100 µM and the TGI (KM12 colon) was over 100 µM. The TGI (UACC-257 melanoma) was over 100 µM, the TGI (RPMI-8226 leukemia) was over 100 µM and the TGI (HOP-92 NSCLC) was over 100 µM. It also gave a TGI (SW-620 colon) of over 100 µM, a TGI (PC-3 prostate) of over 100 µM and a TGI (K-562 leukemia) of over 100 µM. For the same molecule, the TGI (UO-31 renal) was over 100 µM, the TGI (IGROV1 ovarian) was over 100 µM and the TGI (MDA-MB-231 breast) was over 100 µM. For the same molecule, the TGI (CAKI-1 renal) was over 100 µM, the TGI (SF-539 CNS) was over 100 µM and the TGI (SK-MEL-28 melanoma) was over 100 µM. It also gave a TGI (HCC-2998 colon) of over 100 µM, a TGI (EKVX NSCLC) of over 100 µM and a TGI (DU-145 prostate) of over 100 µM. The TGI (HCT-15 colon) was over 100 µM, the TGI (TK-10 renal) was over 100 µM and the TGI (MOLT-4 leukemia) was over 100 µM. For the same molecule, the TGI (BT-549 breast) was over 100 µM.
